Among the data in US20120184562A1, “1,6- AND 1,8-NAPHTHYRIDINES” (priority 2011, published 2012) are IC50 and EC50 values, retold here.

For one assay, the target named is T1, Human DYRK1A (Homo sapiens, UniProt Q13627).
T1 construct: purchased Invitrogen PV3997
The assay can be described thus: DYRK1A Kinase TR-FRET (IMAP-Tb) Assay. The format is biochemical. Particulars: TR-FRET (IMAP-Tb); ATP 70 μM; 37° C., 60 minutes; average of multiple runs; read-out: Enzyme IC50 (μM) DYRK1A.

In a further assay the target is T2, Human DYRK1B (Homo sapiens, UniProt Q9Y463).
T2 construct: purchased Invitrogen PR8350B (former PV4649)
The assay can be described thus: DYRK1B Kinase TR-FRET (IMAP-Tb) Assay. The format is biochemical. Conditions: TR-FRET (IMAP-Tb); ATP 70 μM; 37° C., 60 minutes; average of multiple runs; read-out: Enzyme IC50 (μM) DYRK1B.

In assay [1] the test system is SW620 human colon cancer cells. Put plainly: SW620 Cell Viability Assay. In kind it is cell-based. Conditions: SW-620, 96 h, 4 days incubation, CellTiter-Glo Luminescent Cell Viability Assay, read-out: Cellular EC50 (μM) SW620. How it is done: SW620 Cell Viability Assay
1. Cell Plate Preparation: SW620 human colon cancer cells (known to express DYRK1B), obtained from ATCC, were seeded into 96-well plates at 3×10^3 cells/well in 50 μL of media. • Harvested the required number of cells (counts & viability determined by Guava Viacount). • Centrifuge cells to pellet and removed supernant. • Resuspended in growth media (50 μL/well) & pipetted thoroughly to break up clumps. • Setup for ˜100 wells/plate, therefore, VT=5 mL/plate @ […]. 1A. Some cells (S—) were allowed to attach for 24 hrs, serum starved for 48 hrs, and then followed with drug treatments. Test compound solution were prepared in regular corresponding media supplemented with serum. 2. Test Compound Preparation: Test compounds were solubilized in either DMSO or media and prepared at various stock concentrations. • All compounds were incubated at 37° C. for 30 minutes and vortexed. • (5 mM stocks of test compound were prepared for non-soluble compounds)
• The 10 mM test compound stock was diluted to a concentration of 100× the final Cmax concentration. • Then the test compound stock is diluted 50-fold in media and/or second compound for a final Cmax concentration in the test compound plate. • The Cmax in the test compound plate (2% DMSO) is 2-fold higher than the final Cmax in the cell plate (60 uL titrations were 1:3). 4. Viability Assay: This assay was performed as follows: • Transfer 50 μL of test compound solution per well from the test compound plate onto the cell plate prepared in Step #1. • Mix the plate with treated cells by pipetting up and down three times with 200 μL multi-channel pipette. • Incubate the cells in 5% CO2 incubator @ 37° C. for 4 days. • Run the CellTiter-Glo™ Luminescent Cell Viability Assay.
The results of this assay, given as EC50 values, indicate the concentration of test compound that inhibits tumor cell proliferation by 50%.

Structures are written as SMILES.

T2 sequence (Q9Y463 whole entry): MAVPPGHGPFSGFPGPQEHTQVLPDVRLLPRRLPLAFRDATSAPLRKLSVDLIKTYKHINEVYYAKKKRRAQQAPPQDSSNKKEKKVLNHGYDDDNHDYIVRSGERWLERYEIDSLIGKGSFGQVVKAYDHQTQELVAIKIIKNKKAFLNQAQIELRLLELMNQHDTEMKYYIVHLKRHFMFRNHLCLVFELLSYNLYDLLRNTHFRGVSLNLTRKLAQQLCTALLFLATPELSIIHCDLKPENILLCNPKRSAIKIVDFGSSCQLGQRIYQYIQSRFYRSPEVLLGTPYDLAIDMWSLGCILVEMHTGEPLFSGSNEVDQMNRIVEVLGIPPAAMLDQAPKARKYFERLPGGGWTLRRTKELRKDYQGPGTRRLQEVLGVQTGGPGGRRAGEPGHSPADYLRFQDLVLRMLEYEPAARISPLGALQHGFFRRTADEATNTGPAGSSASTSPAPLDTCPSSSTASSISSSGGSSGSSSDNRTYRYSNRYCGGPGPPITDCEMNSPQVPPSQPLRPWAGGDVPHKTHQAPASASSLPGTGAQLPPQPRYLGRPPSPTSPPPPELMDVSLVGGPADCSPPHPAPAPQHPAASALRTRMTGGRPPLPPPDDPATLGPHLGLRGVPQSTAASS

As for `COc1ccc2cc(C(=O)Nc3cc(C(=O)NCc4cccc(Cl)c4)ccc3C)c(=O)[nH]c2n1` [Example 99, N-(5-(3-Chlorobenzylcarbamoyl)-2-methylphenyl)-7-methoxy-2-oxo-1,2-dihydro-1,8-naphthyridine-3-carboxamide], the IC50 was determined as 0.123 µM at Human DYRK1A and 0.235 µM at Human DYRK1B. Also, the EC50 in assay [1] was > 10 µM.

Consider `COc1ccc2cc(C(=O)Nc3cc(C(=O)NC(CCN)c4ccccc4)ccc3Cl)c(=O)[nH]c2n1` (stereo not drawn) [Example 101, N-(5-(3-Amino-1-phenylpropylcarbamoyl)-2-chlorophenyl)-7-methoxy-2-oxo-1,2-dihydro-1,8-naphthyridine-3-carboxamide], for which the IC50 on Human DYRK1A worked out at 0.0392 µM; on Human DYRK1B, 0.0527 µM. In addition, the EC50 in assay [1] worked out at 0.0273 µM.
